This passage reports IC50 and TEC/Btk results from patent US20180194762A1 (Pharmacyclics LLC, priority 2017, published 2018).

What all share (format): biochemical
The target in test [1] is T1, Btk (Homo sapiens, UniProt Q06187).
T1 construct: purified from insect cells as a full-length construct containing a N-terminal 6X-His tag; His6 (N); made in house; host or cells: insect cells (Method C)
Description: Btk in vitro inhibitory activity (one of Method A TR-FRET, Method B electrophoretic mobility shift, Method C radiometric filter binding). Summed up:
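Three alternative formats were used. A radiometric filter-binding read used 8 nM full-length His-BTK with 0.2 mg/mL poly(Glu-Tyr) 4:1 (C); microfluidic separation of 1 μM FAM-peptide by 1 nM BTK gave IC50 from 12-point curves (B); TR-FRET at Km ATP, 0.5 nM Btk, gave Ki(app)-derived IC50 (A).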
On the technique in general: Mobility shift assays separate free from complexed probe on a gel.

For test [2], the target named is T2, TEC (Homo sapiens, UniProt P42680).
T2 sequence (P42680 1-631): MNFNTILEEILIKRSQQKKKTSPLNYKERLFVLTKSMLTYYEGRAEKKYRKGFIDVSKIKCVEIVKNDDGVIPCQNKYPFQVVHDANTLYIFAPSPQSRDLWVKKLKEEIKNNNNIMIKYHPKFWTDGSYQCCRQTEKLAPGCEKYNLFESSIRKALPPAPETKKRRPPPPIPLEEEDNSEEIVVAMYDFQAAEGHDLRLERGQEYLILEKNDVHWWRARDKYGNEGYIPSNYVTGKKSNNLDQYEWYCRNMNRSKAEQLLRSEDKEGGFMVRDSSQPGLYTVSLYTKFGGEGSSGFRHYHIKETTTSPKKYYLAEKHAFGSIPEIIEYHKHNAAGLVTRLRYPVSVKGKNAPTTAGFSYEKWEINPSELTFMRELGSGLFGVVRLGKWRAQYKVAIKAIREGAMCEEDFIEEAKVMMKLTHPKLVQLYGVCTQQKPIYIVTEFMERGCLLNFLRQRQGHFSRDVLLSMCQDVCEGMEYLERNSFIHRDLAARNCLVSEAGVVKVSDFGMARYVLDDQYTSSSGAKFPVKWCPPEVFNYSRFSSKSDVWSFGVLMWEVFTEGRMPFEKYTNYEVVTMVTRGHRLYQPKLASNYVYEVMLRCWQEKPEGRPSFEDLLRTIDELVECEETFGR
Description: Inhibition of a panel of kinases (in vitro HotSpot kinase assay, 33P-ATP, 1 μM ATP). As to conditions: for IC50: HotSpot kinase assay, 1 μM ATP; for TEC/Btk: ratio of TEC IC50 to Btk IC50 (selectivity). Summed up:
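At 1 μM ATP spiked with 33P-ATP, substrate phosphorylation by the purified enzymes gives the extent of inhibition.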

In test [3] the target is T3, panel of kinases (Homo sapiens, UniProt P51813).
T3 sequence (P51813 1-675): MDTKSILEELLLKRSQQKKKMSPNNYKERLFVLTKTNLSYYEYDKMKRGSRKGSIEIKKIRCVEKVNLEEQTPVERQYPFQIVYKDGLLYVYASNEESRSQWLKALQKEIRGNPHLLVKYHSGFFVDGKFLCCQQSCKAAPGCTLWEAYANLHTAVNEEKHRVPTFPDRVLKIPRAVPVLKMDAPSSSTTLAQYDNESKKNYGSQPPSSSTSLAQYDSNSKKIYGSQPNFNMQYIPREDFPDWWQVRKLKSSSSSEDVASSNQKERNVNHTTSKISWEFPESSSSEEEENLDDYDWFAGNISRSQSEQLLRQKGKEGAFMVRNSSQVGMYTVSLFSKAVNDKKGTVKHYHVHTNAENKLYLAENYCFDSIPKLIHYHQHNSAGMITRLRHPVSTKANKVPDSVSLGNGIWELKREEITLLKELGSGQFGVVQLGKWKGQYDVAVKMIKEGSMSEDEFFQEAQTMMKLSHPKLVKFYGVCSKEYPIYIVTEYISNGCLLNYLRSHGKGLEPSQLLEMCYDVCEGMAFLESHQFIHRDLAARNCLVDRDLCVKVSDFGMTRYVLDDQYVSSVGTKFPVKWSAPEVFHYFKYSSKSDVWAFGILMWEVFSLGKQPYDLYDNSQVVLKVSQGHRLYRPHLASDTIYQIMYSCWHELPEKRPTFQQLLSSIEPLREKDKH
The experiment in a line: Inhibition of a panel of kinases (in vitro HotSpot kinase assay, 33P-ATP, 1 μM ATP), other kinases. As to conditions: BMX wild-type, read-out: BMX-WT IC50. How it is done:
Example 63: Inhibition of a Panel of Kinases The degree of inhibition of a panel of kinases is determined using the in vitro HotSpot kinase assay (purified enzymes, ^33P-ATP, an appropriate substrate and 1 μM ATP).

The mark [4] stands for this setting: method is one of A, B or C, not stated which, read-out: IC50 values against Btk.
Where [5] appears, read: wild-type Btk, read-out: Btk-WT IC50.

Read-outs that look alike come from different tables or passages of the source.

T1 sequence (Q06187 whole entry): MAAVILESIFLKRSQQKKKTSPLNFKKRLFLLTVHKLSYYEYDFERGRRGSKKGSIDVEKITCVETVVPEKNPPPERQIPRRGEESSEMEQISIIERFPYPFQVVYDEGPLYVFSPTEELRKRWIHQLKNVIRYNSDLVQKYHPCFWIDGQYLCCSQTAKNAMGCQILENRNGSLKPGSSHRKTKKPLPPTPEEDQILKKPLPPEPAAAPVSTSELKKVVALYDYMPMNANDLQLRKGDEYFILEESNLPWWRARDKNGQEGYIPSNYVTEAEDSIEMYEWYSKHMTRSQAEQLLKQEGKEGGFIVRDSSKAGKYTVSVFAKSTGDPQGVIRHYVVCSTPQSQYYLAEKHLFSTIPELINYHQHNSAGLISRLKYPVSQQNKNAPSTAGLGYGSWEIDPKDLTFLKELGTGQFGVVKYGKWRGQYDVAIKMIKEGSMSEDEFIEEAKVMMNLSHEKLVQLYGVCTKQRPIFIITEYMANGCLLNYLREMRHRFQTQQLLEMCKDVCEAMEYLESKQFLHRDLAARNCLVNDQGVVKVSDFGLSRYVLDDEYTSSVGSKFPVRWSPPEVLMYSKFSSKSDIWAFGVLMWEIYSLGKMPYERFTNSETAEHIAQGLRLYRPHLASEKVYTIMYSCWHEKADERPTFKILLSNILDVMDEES

Broadly, the IC50 is the concentration at which inhibition is half-maximal. For the molecule `CC(C)(C)c1noc(C(=O)NCc2ccc(-c3ccnc4[nH]nc(N[C@H]5CCNC5)c34)cc2F)n1` [Example 162, 3-tert-butyl-N-{[2-fluoro-4-(3-{[(3S)-pyrrolidin-3-yl]amino}-1H-pyraozlo[3,4-b]pyridin-4-yl)phenyl]methyl}-1,2,4-oxadiazole-5-carboxamide], the IC50 was less than 0.01 µM in test [1] (setting [4]), 0.0045 µM in test [1] (setting [5]), 6.26 µM in test [2] and 6.05 µM in test [3]. The TEC/Btk in test [2] turned out to be 1391.
Take `CC(C)(C)c1nc(C(=O)NCc2ccc(-c3ccnc4[nH]nc(N[C@@H]5CCNC5)c34)c(F)c2)no1` [Example 129, 5-tert-butyl-N-{[3-fluoro-4-(3-{[(3R)-pyrrolidin-3-yl]amino}-1H-pyrazolo[3,4-b]pyridin-4-yl)phenyl]methyl}-1,2,4-oxadiazole-3-carboxamide]: the values for the IC50 in test [1] (setting [5]), in test [2] and in test [3] were 0.0859 µM, greater than 10 µM and greater than 10 µM, respectively. In addition, the TEC/Btk in test [2] is reported as greater than 100.
Turning to `CC(C)(C)c1nc(C(=O)NC2(c3ccc(-c4ccnc5[nH]nc(N[C@@H]6CCCNC6)c45)cc3)CC2)no1` [Example 70, 5-tert-butyl-N-{1-[4-(3-{[(3R)-piperidin-3-yl]amino}-1H-pyrazolo[3,4-b]pyridin-4-yl)phenyl]cyclopropyl}-1,2,4-oxaidazole-3-carboxamide], the IC50 in test [1] (setting [5]) is 0.18 µM; in test [2], greater than 10 µM; in test [3], greater than 10 µM. Also, in test [2], the TEC/Btk is recorded as greater than 100.
Turning to `C=CC(=O)N1CC[C@@H](Nc2n[nH]c3nccc(-c4ccc(CCNC(=O)c5noc(C(C)(C)C)n5)c(F)c4)c23)C1` [Example 87, 5-tert-butyl-N-{2-[2-fluoro-4-(3-{[(3R)-1-(prop-2-enoyl)pyrrolidin-3-yl]amino}-1H-pyrazolo[3,4-b]pyridin-4-yl)phenyl]ethyl}-1,2,4-oxadiazole-3-carboxamide], the IC50 was less than 0.01 µM in test [1] (setting [4]), 0.00143 µM in test [1] (setting [5]), 0.685 µM in test [2] and 0.276 µM in test [3]. In test [2], the TEC/Btk is 479.
In the case of `C[C@@H](NC(=O)c1nc(C(C)(C)C)no1)c1ccc(-c2ccnc3[nH]nc(C4=CCCN(C(=O)N(C)C)C4)c23)cc1` [Example 243, 5-[4-(4-{(1R)-1-[(3-tert-butyl-1,2,4-oxadiazole-5-carbonyl)amino]ethyl}phenyl)-1H-pyrazolo[3,4-b]pyridin-3-yl]-N,N-dimethyl-3,6-dihydropyridine-1(2H)-carboxamide], the values for the IC50 in test [1] (setting [5]), in test [2] and in test [3] were 0.00439 µM, 5.88 µM and 4.45 µM, respectively. For the same molecule, in test [2], the TEC/Btk came to 1339.
The like results for `CC(C)(C)c1ccc(C(=O)NCc2ccc(-c3ccnc4[nH]nc(N[C@H]5CCNC5)c34)cc2F)cc1` [Compound 37, 4-tert-butyl-N-{[2-fluoro-4-(3-{[(3S)-pyrrolidin-3-yl]amino}-1H-pyrazolo[3,4-b]pyridin-4-yl)phenyl]methyl}benzamide] were, in that order, 0.0539 µM, greater than 10 µM, 8.82 µM and greater than 100.
With `C=CC(=O)N1CC[C@@H](Nc2n[nH]c3nccc(-c4cccc(-n5ccc6cc(C7CC7)cc(F)c6c5=O)c4COC(C)=O)c23)C1` [Compound 16, [2-(6-cyclopropyl-8-fluoro-1-oxo-1,2-dihydroisoquinolin-2-yl)-6-(3-{[(3R)-1-(prop-2-enoyl)pyrrolidin-3-yl]amino}-1H-pyrazolo[3,4-b]pyridin-4-yl)phenyl]methyl acetate], the IC50 in test [1] (setting [5]) is greater than 10 µM; in test [2] it was 3.99 µM; in test [3] it was 4.05 µM.
With `CC(C)(C)c1nc(C(=O)NCc2ccc(-c3ccnc4[nH]nc(C5CCNC5)c34)cc2F)no1` (stereo not drawn) [Example 278, 5-tert-butyl-N-({2-fluoro-4-[3-(pyrrolidin-3-yl)-1H-pyrazolo[3,4-b]pyridin-4-yl]phenyl}methyl)-1,2,4-oxadiazole-3-carboxamide], the IC50 in test [1] (setting [5]) was 0.0935 µM; in test [3], 7.86 µM.
Regarding `CC(C)c1cc(C(=O)NCc2ccc(-c3ccnc4[nH]nc(N[C@@H]5CCCN(C(=O)N(C)C)[C@@H]5C)c34)cc2F)no1` [Example 305, (2R,3R)-3-({4-[3-fluoro-4-({[5-(propan-2-yl)-1,2-oxazole-3-carbonyl]amino}methyl)phenyl]-1H-pyrazolo[3,4-b]pyridin-3-yl}amino)-N,N,2-trimethylpiperidine-1-carboxamide], the IC50 in test [1] (setting [5]) was 0.677 µM; in test [3], 9.58 µM.
Taken in the same sequence, the figures for `C[C@@H](NC(=O)c1nc(C(C)(C)C)no1)c1ccc(-c2ccnc3[nH]nc(NC4CCN(S(C)(=O)=O)C4)c23)cc1` (stereo partly drawn) [Example 386, 3-tert-butyl-N-{(1R)-1-[4-(3-{[1-(methanesulfonyl)pyrrolidin-3-yl]amino}-1H-pyrazolo[3,4-b]pyridin-4-yl)phenyl]ethyl}-1,2,4-oxadiazole-5-carboxamide] were 0.0105 µM and 6.92 µM.
Taken in the same sequence, the figures for `C=CC(=O)N[C@@H]1CCCC[C@H]1Nc1n[nH]c2nccc(-c3ccc(CNC(=O)c4cc(C(C)(C)C)on4)c(F)c3)c12` [Example 313, 5-tert-butyl-N-({2-fluoro-4-[3-({(1R,2R)-2-[(prop-2-enoyl)amino]cyclohexyl}amino)-1H-pyrazolo[3,4-b]pyridin-4-yl]phenyl}methyl)-1,2-oxazole-3-carboxamide] were 0.00874 µM and 5.23 µM.
Taken in the same sequence, the figures for `C[C@@H](NC(=O)c1cc(C(C)(C)O)on1)c1ccc(-c2ccnc3[nH]nc(NC4CCOC4)c23)cc1` (stereo partly drawn) [Example 398, 5-(2-hydroxypropan-2-yl)-N-[(1R)-1-(4-{3-[(oxolan-3-yl)amino]-1H-pyrazolo[3,4-b]pyridin-4-yl}phenyl)ethyl]-1,2-oxazole-3-carboxamide] were 0.625 µM and 5.73 µM.
As to `CC(C)(C)c1nc(C(=O)NCc2ccc(-c3ccnc4[nH]nc(C[C@H]5CCNC5)c34)cc2F)no1` [Example 274, (R)-5-tert-butyl-N-[(2-fluoro-4-{3-[(pyrrolidin-3-yl)methyl]-1H-pyrazolo[3,4-b]pyridin-4-yl}phenyl)methyl]-1,2,4-oxadiazole-3-carboxamide], the IC50 in test [1] (setting [5]) was 0.147 µM; in test [3], 8.43 µM.
Taken in the same sequence, the figures for `O=C(NCc1ccc(-c2ccnc3[nH]nc(NC4CCNC4)c23)cc1F)c1ccc2c(c1)OCCCO2` (stereo not drawn) [Example 350, N-[(2-fluoro-4-{3-[(pyrrolidin-3-yl)amino]-1H-pyrazolo[3,4-b]pyridin-4-yl}phenyl)methyl]-3,4-dihydro-2H-1,5-benzodioxepine-7-carboxamide] were 0.719 µM and 7 µM.
The like results for `C[C@@H](NC(=O)c1nc(C(C)(C)C)no1)c1ccc(-c2ccnc3[nH]nc(NC4CCN(S(C)(=O)=O)CC4)c23)cc1` [Example 387, 3-tert-butyl-N-{(1R)-1-[4-(3-{[1-(methanesulfonyl)piperidin-4-yl]amino}-1H-pyrazolo[3,4-b]pyridin-4-yl)phenyl]ethyl}-1,2,4-oxadiazole-5-carboxamide] were, in that order, 0.0273 µM and 7.21 µM.
